Measurements taken from patent US7867979B2, “Drug composition for treating 2 type diabetes and diabetic chronicity complications” (Hainan Deze Drug Research Co., Ltd., priority 2006, dated 2011).
Read-outs that look alike come from different tables or passages of the source. Blank lines part the entries; values can stand above or below the compound they belong to.

Legend:
[1] = Pharmacokinetics of the composition after oral administration; format: in vivo; details: rats, serum; for AUC(0-inf) / Cmax: rat
Description: Mangiferin is suspended in 1% carboxymethyl cellulose sodium solution, the concentration of mangiferin is 25 mg/mL (Sample A).
Berberine is suspended in 1% carboxymethyl cellulose sodium solution, the concentration of berberine is 25 mg/mL (Sample B). The composition which is composed of mangiferin and berberine in the ratio of 1:4 is suspended in 1% carboxymethyl cellulose sodium solution, the concentration of the composition is 50 mg/mL (Sample C).
All rats were fasted for 16 hours and drunk water freely. The rats are oral administrated respectively sample A (40 mg/kg), sample B (160 mg/kg) and sample C (200 mg/kg). From the rats, 0.4 ml blood samples were taken respectively at the time of 5 minutes before oral administrated and 0 h, 1 h, 2 h, 3 h, 4 h, 5 h, 6 h, 8 h, 10 h, 12 h, 15 h, and 24 h after oral administrated. These blood samples were put into centrifuge tube containing heparin, then were centrifuged for 10 minutes, the serum is obtained.
Serum samples are taken accurately 100 μL into centrifuge tubes, then 400 μL acetonitrile-acetic acid (9:1) is added into centrifuge tubes. The samples are whorled for 1.5 minutes, and then the samples are centrifuged 3000 r/min for 10 minutes. The supernatant was put into clear tube, dried by nitrogen, 100 μL mobile phase were put into the remnants, whorled for 1.5 minutes, then centrifuged 3000 r/min for 10 minutes. The Supernatant was put into sample bottle. All the samples are determined by HPLC. Injection volume is 20 μL.
4.1 Apparatus: Angilent 1100 HPLC (American Agilent Co.): include G1312A dual pump and G1313A Auto-Sampler.
Chromatographic column: discover ODS column (250 mm×6 mm, 5 μm);
The mobile phase: methanol-0.1% H3PO4 water.
Velocity of flow: 1.0 ml/min.
Detection Wavelength: 264 nm.

diabetic GK rats = assay: Blood glucose and lipid in GK rats; format: in vivo, Goto-Kakizaki rats (GK); details: oral daily 12 weeks; for GLU / Lipid TC / Lipid TG: GK rats, high fat diet
Text: The GK (Goto-Kakizaki) rat is the spontaneous model of diabetes, the pathogenesis of GK rat is very similar to the pathogenesis of type 2 diabetes. After diabetes attack, hyperglycemia and insulin secretion weakened emerge rapidly, the latter diseases may be complicated by retinopathy, micro-vascular disease, neuropathy, nephropathy in GK rat. The GK rats have been widely used in type 2 diabetes study, so we choose GK rat as the animal model of the following experiment. […] Then they can be mixed or diluted in accordance with the dose and the ratio. 1.3 Goto-Kakizaki rats (GK) (4 months age, ♀♂) and Wistar rats (SPF level, ♀♂) were purchased from Shanghai SLAC laboratory animal Co., Ltd. In addition to the normal rats, the other rats were fed with high fat diet (20% protein and 3.5% cholesterol). After the rats was feeding adaptation for one week, The GK rats which the blood glucose level was more than 11.1 mmol/L were selected, and then divided into the following groups random: GK rats control group (n=10); mangiferin groups (10, 30, 200 mg/kg, each group 10 rats); berberine groups (10, 20, 150 mg/kg, each group 10 rats); composition group 1[[mangiferin (10 mg/kg)+berberine (10 mg/kg)], 10 rats]; composition group 2[[mangiferin (200 mg/kg)+berberine (150 mg/kg)], 10 rats]. Wistar rats are normal control group (10 rats). GK rats control group and Wistar rats group were given saline. The other groups were given test drugs. Test samples were administrated orally at the same time every day for 12 weeks. 3.1 Blood Glucose and lipid: The blood specimens were taken at the end of the test. Plasma glucose (GLU), triglycerides (TG), total cholesterol (TC) were determined by HITACHI7080 automatic biochemistry analyzer. […] The results have been calculated as mean±SD ( x±SD) and the comparisons of the data have been done by t-test. […] Mangiferin and berberine are prepared in accordance with the method of preparation of example 1 and 2. Then they can be mixed in accordance with the dose and the ratio such as table 3. 1.2 Animal: Goto-Kakizaki rats (GK) (4 months age, ♀♂) and Wistar rats (SPF level, ♀♂) were purchased from Shanghai SLAC laboratory animal Co., Ltd. In addition to the normal rats, the other rats were fed with high fat diet (20% protein and 3.5% cholesterol). After the rats was feeding adaptation for one week, GK rats that the blood glucose level of the GK rats was more than 11.1 mmol/L were selected, and then random divided into the following groups as follows (Table 3): There are ten rats in every group. GK rats control group and wistar rats group were given saline. The other groups were given test drugs. Test samples were administrated orally at the same time every day for 12 weeks. The measurements are as same as the above experiment.

[2] = system: Superoxidedismutase (SOD); assay: Superoxidedismutase (SOD) in kidney tissue homogenate of GK rats; format: in vivo, Goto-Kakizaki rats (GK); details: oral daily 12 weeks
Description: GK rats control group (n=10); mangiferin groups (10, 30, 200 mg/kg, each group 10 rats); berberine groups (10, 20, 150 mg/kg, each group 10 rats); composition group 1[[mangiferin (10 mg/kg)+berberine (10 mg/kg)], 10 rats]; composition group 2[[mangiferin (200 mg/kg)+berberine (150 mg/kg)], 10 rats]. Wistar rats are normal control group (10 rats). GK rats control group and Wistar rats group were given saline. The other groups were given test drugs. Test samples were administrated orally at the same time every day for 12 weeks. 3.3.1 Preparation of tissue homogenate: Rats were killed by femoral artery bloodletting after administration of the rats for 12-weeks. Kidney tissue of the rats were taken, the blood of kidney tissue were washed with cooling saline (4° C.), then the remnant water was absorbed with filter paper, the kidney tissue was weighed. Per gram kidney tissue was added into 10 ml saline, which was put in homogenized machine (10,000 r/min, 10 seconds, 3rd), 10% tissue homogenate was prepared, the tissue homogenate was centrifuged (4000 r/min) for 10 minutes to get supernatant, the supernatant was saved in −20° C. for determination. […] SOD is determined by Xanthine Oxidase calorimetric analysis, the test box was bought from Nanjing Jiancheng Bioengineering Research Institute. […] The results have been calculated as mean±SD ( x±SD) and the comparisons of the data have been done by t-test. There are ten rats in every group. GK rats control group and wistar rats group were given saline. The other groups were given test drugs. Test samples were administrated orally at the same time every day for 12 weeks. The measurements are as same as the above experiment.

[3] = 30 mg/kg mangiferin, 20 mg/kg berberine

SMILES: O=c1c2cc(O)c(O)cc2oc2cc(O)c([C@@H]3O[C@H](CO)[C@@H](O)[C@H](O)[C@H]3O)c(O)c12 [Mangiferin]
AUC(0-inf) ([1]; sample A 40 mg/kg or sample C (1:4) 200 mg/kg, read-out: AUC0-∞ of mangiferin): 1200 ± 391 µg·h/mL
Cmax ([1]; sample A 40 mg/kg or sample C (1:4) 200 mg/kg, read-out: Cmax of mangiferin): 18600 ± 1500 ng/mL
T1/2β of mangiferin ([1]; sample A 40 mg/kg or sample C (1:4) 200 mg/kg): 4.3 ± 0.4 h
Improvement of GLU, TC, TG, AR, MDA, SOD in diabetic GK rats (diabetic GK rats; 10 mg/kg): do not significantly improve
Improvement of GLU, TC, TG, AR, MDA, SOD in diabetic GK rats (diabetic GK rats; [3]): improves
GLU (diabetic GK rats; 10 mg/kg): 20.75 ± 3.39 mmol/L
Lipid TC (diabetic GK rats; 10 mg/kg): 4.48 ± 1.53 mmol/L
Lipid TG (diabetic GK rats; 10 mg/kg): 3.62 ± 0.41 mmol/L
GLU (diabetic GK rats; 30 mg/kg): 13.05 ± 2.23 mmol/L
Lipid TC (diabetic GK rats; 30 mg/kg): 3.16 ± 0.32 mmol/L
Lipid TG (diabetic GK rats; 30 mg/kg): 2.82 ± 0.22 mmol/L
GLU (diabetic GK rats; 200 mg/kg): 9.05 ± 2.04 mmol/L
Lipid TC (diabetic GK rats; 200 mg/kg): 3.06 ± 0.29 mmol/L
Lipid TG (diabetic GK rats; 200 mg/kg): 1.82 ± 0.32 mmol/L
Measurements about oxidation SOD ([2]; 10 mg/kg): 130.74 ± 23.47 U/mg pro
Measurements about oxidation SOD ([2]; 30 mg/kg): 168.23 ± 13.46 U/mg pro
Measurements about oxidation SOD ([2]; 200 mg/kg): 194.15 ± 13.55 U/mg pro

AUC(0-inf) ([1]; sample B 160 mg/kg or sample C (1:4) 200 mg/kg, read-out: AUC0-∞ of berberine): 3440 ± 250 µg·h/mL
Cmax ([1]; sample B 160 mg/kg or sample C (1:4) 200 mg/kg, read-out: Cmax of berberine): 54100 ± 2600 ng/mL
T1/2β of berberine ([1]; sample B 160 mg/kg or sample C (1:4) 200 mg/kg): 3.5 ± 0.3 h
SMILES: COc1ccc2cc3[n+](cc2c1OC)CCc1cc2c(cc1-3)OCO2 [Berberine]
Improvement of GLU, TC, TG, AR, MDA, SOD in diabetic GK rats (diabetic GK rats; 10 mg/kg): do not significantly improve
Improvement of GLU, TC, TG, AR, MDA, SOD in diabetic GK rats (diabetic GK rats; [3]): improves
GLU (diabetic GK rats; 10 mg/kg): 21.24 ± 3.13 mmol/L
Lipid TC (diabetic GK rats; 10 mg/kg): 4.53 ± 1.28 mmol/L
Lipid TG (diabetic GK rats; 10 mg/kg): 3.49 ± 0.68 mmol/L
GLU (diabetic GK rats; 20 mg/kg): 12.29 ± 2.76 mmol/L
Lipid TC (diabetic GK rats; 20 mg/kg): 3.27 ± 0.24 mmol/L
Lipid TG (diabetic GK rats; 20 mg/kg): 2.79 ± 0.24 mmol/L
GLU (diabetic GK rats; 150 mg/kg): 9.11 ± 2.08 mmol/L
Lipid TC (diabetic GK rats; 150 mg/kg): 3.01 ± 0.28 mmol/L
Lipid TG (diabetic GK rats; 150 mg/kg): 1.80 ± 0.19 mmol/L
Measurements about oxidation SOD ([2]; 10 mg/kg): 131.56 ± 23.49 U/mg pro
Measurements about oxidation SOD ([2]; 20 mg/kg): 170.04 ± 13.49 U/mg pro
Measurements about oxidation SOD ([2]; 150 mg/kg): 195.10 ± 13.71 U/mg pro
